# Experimental data reported in patent publication US9546367B2, “siRNA compositions and methods for inhibiting gene expression in tumor initiating cells of breast cancer” (priority 2011, dated 2017).
# Columns and labels:
# [1] = test system: MDAMB231 tumor xenografts; assay: long-term in vivo siRNA treatment of MDAMB231 xenografts; design: species or system SCID-Beige mice; details: p<0.05; for median survival: siRNA with chemotherapy (docetaxel) over chemotherapy alone
# Description: FIG. 8A, FIG. 8B, and […] show long-term, in vivo treatment in siRNA MDAMB231 xenografts. Triple-negative breast cancer cell line, MDAMB231 was injected into the mammary fat pad of SCID beige mice (n=9). These tumors were randomized into six groups: vehicle+scrambled siRNA, vehicle+RPL39 siRNA, vehicle 4 MLF2 siRNA, docetaxel (20 mg/kg, i.p.)+scrambled siRNA, docetaxel (20 mg/kg, i.p.)+RPL39 siRNA, docetaxel (20 mg/kg, i.p.)+MLF2 siRNA. Tumor volume was measured twice weekly and reported as tumor volume fold-change over time.
# Long-term in vivo treatment efficacy studies: three million cells MDAMB231 cancer cells, which grow primary as well as metastatic tumors, were injected in the mammary fat pad of SCID-Beige mice and allowed them to grow to 150-300 mm^3 tumors, and randomized them into 6 groups: (1) vehicle+scrambled siRNA. (2) vehicle+MLF2 siRNA. (3) vehicle+RPL39 siRNA, (4) docetaxel (20 mg/kg)+scrambled siRNA, (5) docetaxel (20 mg/kg)+MLF2 siRNA, and (6) docetaxel (20 mg/kg)+RPL39 siRNA. Each injection was loaded with 15 μg of siRNA per animal. These groups received three cycles of treatment every 14 days apart starting at Day 0, and cationic liposome packaged siRNA was administered through tail vein injection thrice weekly.
# In the shRNA knockdown experiments, the mean and standard deviation of all measurements from every replicated experiment of each plate were estimated. The Z-score was calculated by subtracting […] and dividing the difference by standard deviation. […] Different treatment groups were compared by one-way ANOVA to determine statistical significance in the confirmatory shRNA, nanoliposome siRNA, and tumor volume fold-change experiments. This was followed by Tukey analysis for a pairwise comparison of the different treatment groups. In the tumor recurrence studies, events were defined as first appearance of tumor >50 mm^3 after completion of treatment. Time to recurrence was derived by the Kaplan-Meier method, with differences compared using the generalized Mann-Whitney-Wilcoxon rank-sum test.
# [2] = test system: SUM159 xenografts; assay: short-term in vivo siRNA (multistage particle) treatment, SUM159 xenograft; design: species or system SCID-Beige mice; details: for tumor volume: SUM159; for secondary MSFE: SUM159 xenograft cells, tumors collected after two weeks; for Aldefluor levels: SUM159 xenografts, reduction not statistically significant
# Description: FIG. 9A, FIG. 9B, FIG. 9C, and FIG. 9D show short-term, in vivo treatment in siRNA SUM159 xenografts. Triple-negative breast cancer cell line SUM159 was injected into the mammary fat pad of SCID beige mice (n=9). These tumors were randomized into six groups: 1) vehicle+scrambled siRNA (15 μg, i.v.); 2) vehicle+RPL39 siRNA 15 μg (i.v.); 3) vehicle+MLF2 siRNA (15 μg (i.v.); 4) docetaxel (20 mg/kg, i.p.)+scrambled siRNA 15 μg (i.v.): 5) docetaxel (20 mg/kg, i.p.)+RPL39 siRNA 15 ltg (i.v.), and 6) docetaxel (20 mg/kg, i.p.)+MLF2 siRNA 15 μg (i.v.). […] Data were analyzed by one-way ANOVA, and plotted as mean±SEM for n=9 replicates; *p<0.05;
# The effect of MLF2 and RPL39 using siRNA packaged in multistage nanoparticles in two different triple negative models were studied. SUM159 and a patient-derived human cancer xenograft (BCM2665) from a primary human breast cancer transplanted in SCID-Beige mice, the test group had 54 mice per xenograft line, and 9 mice per treatment arm. When tumor sizes reached 150 to 300 mm^3, mice were divided into six groups: (1) vehicle-treated, (2) chemotherapy on day 0 with one dose of docetaxel 20 mg/kg by intraperitoneal (i.p.) injection. (3) siRNA against MLF2 packaged in nanoparticles (single injection intravenous (i.v.) on Day 1), (4) combination treatment with docetaxel (20 mg/kg i.p. on Day 1) and siRNA against MLF2 (single injection i.v. on Day 1), (5) siRNA against RPL39 packaged in nanoparticles (single injection i.v. on Day 1), and (6) combination treatment with docetaxel (20 mg/kg i.p. on Day 1) and siRNA against inhibitor […] (single injection iv. on Day 1). The same dose (15 μg siRNA) was used in all experiments. Animals were sacrificed on Day 14. The tumors were harvested and analyzed for downstream effects on BCSC self-renewal using FACS analysis, and MSFE.
# The fraction of BCSCs in the xenograft tumors from the six treatment groups were processed by mincing and digesting the tumors using collagenase type III, for 3 hrs at 37° C. in order to dissociate the tumors into single cells. Changes in CD44+/CD24/Lin− and Aldefluor® were analyzed as described previously (Li et al., 2008). Briefly, cells were stained with primary antibodies antiCD44 labeled APC (dilution 1:10. BD Biosciences), anti-CD24-labeled FITC (dilution 1:10, BD Biosciences), and additionally with H2KD-labeled PE to eliminate all mouse, lineage-positive cells. The cells were incubated in HBSS (Hanks Balanced Salt Solution, GIBCO) for 15 min on ice with 2% FBS for the antibodies and 45 min for Aldefluor® reagent. Following incubation, cells were washed once with HBSS and re-suspended in HBSS supplemented with 2% FBS. […] (PI) was added to the cells for live/dead gating prior to FACS analysis.
# Mammosphere formation efficiency, the in vitro assay for stem cell self-renewal, was performed as described previously (Dontu et al., 2003; Dontu et al., 2005; Li et al., 2008). Single cells were plated in ultra-low attachment plates (Corning, Acton, Mass., USA) at the density 40,000 viable cells/mL for BCM2665 in primary culture, and at the density 10,000 viable cells/mL in secondary culture. For mammosphere culture, cells were grown in serum-free mammary epithelial basal medium (MEGM) (Lonza, Inc.) supplemented with B27 (Invitrogen), 20 ng/mL EGF (BD Biosciences), and 1% heparin (Sigma Chemical Co.) in a humidified incubator ([…]: 95% air, 37° C. for 14 days, as previously described (Li et al., 2008).
# [3] = siRNA alone (15 μg per injection) vs vehicle treated groups
# [4] = siRNA in combination with docetaxel (20 mg/kg)
# [5] = siRNA alone (15 μg i.v., MSV) vs vehicle
# [6] = siRNA+chemotherapy vs standard-dose docetaxel (20 mg/kg)
Substance,"tumor volume [1, 3]","tumor volume [1, 4]",median survival [1],"tumor volume [2, 5]","tumor volume [2, 6]",secondary MSFE [2],Aldefluor levels [2]
"MLF2 siRNA: siRNA against myeloid leukemia factor 2; sense SEQ ID NO: 3 CCCTGATGGATCCCTTTGCTAT, antisense SEQ ID NO: 19 ATAGCAAAGGGATCCATCAGGA (packaged in nanoliposomes, chemistry not given here, further chemistry not given here)",Significant reduction,significantly reduced,significantly prolonged,Significant reduction,"Similarly, observations were obtained",Significant decrease,reduction
"RPL39 siRNA: siRNA against ribosomal protein L39-like; sense SEQ ID NO: 15 ACGATTCCTGGCCAAGAAACAA, antisense SEQ ID NO: 31 TTGTTTCTTGGCCAGGAATCGC (listed as DNA, chemistry not fully specified)",Significant reduction,significantly reduced,significantly prolonged,Significant reduction,"Similarly, observations were obtained",Significant decrease,reduction
